{"source": "patent US9206177B2", "about": "“Substituted dimeric quinazoline-2,4-diones as FGF receptor agonists” (Sanofi, priority 2011, dated 2015)", "test_system": "human venous endothelial cells (HUVECs)", "test": "In vitro angiogenesis model (pseudotubule length of HUVECs on matrigel/collagen)", "format": "cell-based", "parameters": "% activation with respect to FGF2 (in vitro): concentration or dose not given beside the values", "conditions": "for EC50 / % activation with respect to FGF2 (in vitro): in vitro; for % activation with respect to FGF2 (in vitro): relative to FGF2; for active on the in vitro angiogenesis model: at a concentration of 10 nM", "description": "In Vitro Angiogenesis Model\nThe products are tested for their ability to cause rearrangement of human venous endothelial cells (HUVECs) on matrigel (Becton dickinson 356230) diluted in collagen (rat tail collagen, type I: Becton dickinson 354236). After 24 hours, the cells are observed under a microscope with a ×4 objective and the length of the pseudotubules is measured by means of an image analyser (BIOCOM-logiciel Visiolab 2000).", "data": [{"smiles": "Cc1c(-c2cccc(OCCOCCOCCOCCOc3cccc(-c4c(C)c(C(=O)c5ccc6[nH]c(=O)n(CC(=O)O)c(=O)c6c5)n5ccccc45)c3)c2)c2ccccn2c1C(=O)c1ccc2[nH]c(=O)n(CC(=O)O)c(=O)c2c1", "note": "[Compound 2, 2,2′-{oxybis[ethane-2,1-diyloxyethane-2,1-diyloxybenzene-3,1-diyl(2-methylindolizine-1,3-diyl)carbonyl(2,4-dioxo-1,4-dihydroquinazoline-6,3(2H)-diyl)]}diacetic acid]", "values": [{"measurement": "EC50", "setting": "Homo sapiens, HUVEC", "value": "< 1", "unit": "nM"}, {"measurement": "% activation with respect to FGF2 (in vitro)", "value": 44, "unit": "%"}]}, {"smiles": "Cc1c(-c2ccc(OCCOCCOCCOc3ccc(-c4c(C)c(C(=O)c5ccc6[nH]c(=O)n(CC(=O)O)c(=O)c6c5)n5ccccc45)cc3)cc2)c2ccccn2c1C(=O)c1ccc2[nH]c(=O)n(CC(=O)O)c(=O)c2c1", "note": "[Compound 3, 2,2′-{ethane-1,2-diylbis[oxyethane-2,1-diyloxybenzene-4,1-diyl(2-methylindolizine-1,3-diyl)carbonyl(2,4-dioxo-1,4-dihydroquinazoline-6,3(2H)-diyl)]}diacetic acid]", "values": [{"measurement": "EC50", "setting": "Homo sapiens, HUVEC", "value": "< 1", "unit": "nM"}, {"measurement": "active on the in vitro angiogenesis model", "value": "active"}, {"measurement": "% activation with respect to FGF2 (in vitro)", "value": 74, "unit": "%"}]}, {"smiles": "Cc1c(-c2ccc(OCC(=O)NCCCCNC(=O)COc3ccc(-c4c(C)c(C(=O)c5ccc6[nH]c(=O)n(CC(=O)O)c(=O)c6c5)n5ccccc45)cc3)cc2)c2ccccn2c1C(=O)c1ccc2[nH]c(=O)n(CC(=O)O)c(=O)c2c1", "note": "[Compound 5]", "values": [{"measurement": "EC50", "value": "< 100", "unit": "nM"}, {"measurement": "% activation with respect to FGF2 (in vitro)", "value": 30, "unit": "%"}]}, {"smiles": "Cc1c(-c2cccc(OCC(=O)NCCCCCCNC(=O)COc3cccc(-c4c(C)c(C(=O)c5ccc6[nH]c(=O)n(CC(=O)O)c(=O)c6c5)n5ccccc45)c3)c2)c2ccccn2c1C(=O)c1ccc2[nH]c(=O)n(CC(=O)O)c(=O)c2c1", "note": "[Compound 6]", "values": [{"measurement": "EC50", "value": "< 100", "unit": "nM"}, {"measurement": "% activation with respect to FGF2 (in vitro)", "value": 29, "unit": "%"}]}, {"smiles": "Cc1c(-c2cccc(OCC(=O)NCCCCNC(=O)COc3cccc(-c4c(C)c(C(=O)c5ccc6[nH]c(=O)n(CC(=O)O)c(=O)c6c5)n5ccccc45)c3)c2)c2ccccn2c1C(=O)c1ccc2[nH]c(=O)n(CC(=O)O)c(=O)c2c1", "note": "[Compound 7]", "values": [{"measurement": "EC50", "value": "< 100", "unit": "nM"}, {"measurement": "% activation with respect to FGF2 (in vitro)", "value": 28, "unit": "%"}]}, {"smiles": "Cc1c(-c2ccc(OCCCCCN(CCCCCOc3ccc(-c4c(C)c(C(=O)c5ccc6c(=O)n(CC(=O)O)c(=O)[nH]c6c5)n5ccccc45)cc3)CCOCCO)cc2)c2ccccn2c1C(=O)c1ccc2c(=O)n(CC(=O)O)c(=O)[nH]c2c1", "note": "[Compound 8, 2,2′-({[2-(2-hydroxyethoxy)ethyl]imino}bis[pentane-5,1-diyloxybenzene-4,1-diyl(2-methylindolizine-1,3-diyl)carbonyl(2,4-dioxo-1,4-dihydroquinazoline-7,3(2H)-diyl)])diacetic acid]", "values": [{"measurement": "EC50", "setting": "Homo sapiens, HUVEC", "value": "< 1", "unit": "nM"}, {"measurement": "% activation with respect to FGF2 (in vitro)", "value": 42, "unit": "%"}]}, {"smiles": "CCN(CCCCCOc1ccc(-c2c(C)c(C(=O)c3ccc4c(=O)n(CC(=O)O)c(=O)[nH]c4c3)n3ccccc23)cc1)CCCCCOc1ccc(-c2c(C)c(C(=O)c3ccc4c(=O)n(CC(=O)O)c(=O)[nH]c4c3)n3ccccc23)cc1", "note": "[Compound 9, 2,2′-{(ethylimino)bis[pentane-5,1-diyloxybenzene-4,1-diyl(2-methylindolizine-1,3-diyl)carbonyl(2,4-dioxo-1,4-dihydroquinazoline-7,3(2H)-diyl)]}diacetic acid]", "values": [{"measurement": "EC50", "setting": "Homo sapiens, HUVEC", "value": "< 100", "unit": "nM"}, {"measurement": "% activation with respect to FGF2 (in vitro)", "value": 28, "unit": "%"}]}, {"smiles": "Cc1c(-c2ccc(OCCCCCN(CCCCCOc3ccc(-c4c(C)c(C(=O)c5ccc6c(=O)n(CC(=O)O)c(=O)[nH]c6c5)n5ccccc45)cc3)CCN3CCOCC3)cc2)c2ccccn2c1C(=O)c1ccc2c(=O)n(CC(=O)O)c(=O)[nH]c2c1", "note": "[Compound 10, 2,2′-({[2-(morpholin-4-yl)ethyl]imino}bis[pentane-5,1-diyloxybenzene-4,1-diyl(2-methylindolizine-1,3-diyl)carbonyl(2,4-dioxo-1,4-dihydroquinazoline-7,3(2H)-diyl)])diacetic acid]", "values": [{"measurement": "EC50", "setting": "Homo sapiens, HUVEC", "value": "< 1", "unit": "nM"}, {"measurement": "% activation with respect to FGF2 (in vitro)", "value": 41, "unit": "%"}]}, {"smiles": "Cc1c(-c2ccc(OCCCCCN(CCCCCOc3ccc(-c4c(C)c(C(=O)c5ccc6c(=O)n(CC(=O)O)c(=O)[nH]c6c5)n5ccccc45)cc3)CCN3CCN(C)CC3)cc2)c2ccccn2c1C(=O)c1ccc2c(=O)n(CC(=O)O)c(=O)[nH]c2c1", "note": "[Compound 11, 2,2′-({[2-(4-methylpiperazin-1-yl)ethyl]imino}bis[pentane-5,1-diyloxybenzene-4,1-diyl(2-methylindolizine-1,3-diyl)carbonyl(2,4-dioxo-1,4-dihydroquinazoline-7,3(2H)-diyl)])diacetic acid]", "values": [{"measurement": "EC50", "setting": "Homo sapiens, HUVEC", "value": "< 1", "unit": "nM"}, {"measurement": "% activation with respect to FGF2 (in vitro)", "value": 63, "unit": "%"}]}, {"smiles": "Cc1c(-c2ccc(OCCCCCN(CCCCCOc3ccc(-c4c(C)c(C(=O)c5ccc6c(=O)n(CC(=O)O)c(=O)[nH]c6c5)n5ccccc45)cc3)Cc3ccncc3)cc2)c2ccccn2c1C(=O)c1ccc2c(=O)n(CC(=O)O)c(=O)[nH]c2c1", "note": "[Compound 12, 2,2′-{[(pyridin-4-ylmethyl)imino]bis[pentane-5,1-diyloxybenzene-4,1-diyl(2-methylindolizine-1,3-diyl)carbonyl(2,4-dioxo-1,4-dihydroquinazoline-7,3(2H)-diyl)]}diacetic acid]", "values": [{"measurement": "EC50", "setting": "Homo sapiens, HUVEC", "value": "< 1", "unit": "nM"}, {"measurement": "% activation with respect to FGF2 (in vitro)", "value": 42, "unit": "%"}]}, {"smiles": "Cc1c(-c2ccc(OCCCCCN(CCCCCOc3ccc(-c4c(C)c(C(=O)c5ccc6c(=O)n(CC(=O)O)c(=O)[nH]c6c5)n5ccccc45)cc3)Cc3ccc(N(C)C)cc3)cc2)c2ccccn2c1C(=O)c1ccc2c(=O)n(CC(=O)O)c(=O)[nH]c2c1", "note": "[Compound 13, 2,2′-({[4-(dimethylamino)benzyl]imino}bis[pentane-5,1-diyloxybenzene-4,1-diyl(2-methylindolizine-1,3-diyl)carbonyl(2,4-dioxo-1,4-dihydroquinazoline-7,3(2H)-diyl)])diacetic acid]", "values": [{"measurement": "EC50", "setting": "Homo sapiens, HUVEC", "value": "< 100", "unit": "nM"}, {"measurement": "% activation with respect to FGF2 (in vitro)", "value": 23, "unit": "%"}]}, {"smiles": "CCN(CC)CCN(CCCCCOc1ccc(-c2c(C)c(C(=O)c3ccc4c(=O)n(CC(=O)O)c(=O)[nH]c4c3)n3ccccc23)cc1)CCCCCOc1ccc(-c2c(C)c(C(=O)c3ccc4c(=O)n(CC(=O)O)c(=O)[nH]c4c3)n3ccccc23)cc1", "note": "[Compound 14, 2,2′-({[2-(diethylamino)ethyl]imino}bis[pentane-5,1-diyloxybenzene-4,1-diyl(2-methylindolizine-1,3-diyl)carbonyl(2,4-dioxo-1,4-dihydroquinazoline-7,3(2H)-diyl)])diacetic acid]", "values": [{"measurement": "EC50", "setting": "Homo sapiens, HUVEC", "value": "< 1", "unit": "nM"}, {"measurement": "% activation with respect to FGF2 (in vitro)", "value": 62, "unit": "%"}]}, {"smiles": "Cc1c(-c2ccc(OCCCN3CCN(CCCOc4ccc(-c5c(C)c(C(=O)c6ccc7c(=O)n(CC(=O)O)c(=O)[nH]c7c6)n6ccccc56)cc4)CC3)cc2)c2ccccn2c1C(=O)c1ccc2c(=O)n(CC(=O)O)c(=O)[nH]c2c1", "note": "[Compound 15, 2,2′-{piperazine-1,4-diylbis[propane-3,1-diyloxybenzene-4,1-diyl(2-methylindolizine-1,3-diyl)carbonyl(2,4-dioxo-1,4-dihydroquinazoline-7,3(2H)-diyl)]}diacetic acid]", "values": [{"measurement": "EC50", "setting": "Homo sapiens, HUVEC", "value": "< 100", "unit": "nM"}, {"measurement": "% activation with respect to FGF2 (in vitro)", "value": 24, "unit": "%"}]}, {"smiles": "Cc1c(-c2ccc(C(=O)NCCOP(=O)(O)OCCNC(=O)c3ccc(-c4c(C)c(C(=O)c5ccc6c(=O)n(CC(=O)O)c(=O)[nH]c6c5)n5ccccc45)cc3)cc2)c2ccccn2c1C(=O)c1ccc2c(=O)n(CC(=O)O)c(=O)[nH]c2c1", "note": "[Compound 16, [7-({1-[4-({9-[4-(3-{[3-(carboxymethyl)-2,4-dioxo-1,4-dihydroquinazolin-7(2H)-yl]carbonyl}-2-methylindolizin-1-yl)phenyl]-4-hydroxy-4-oxido-9-oxo-3,5-dioxa-8-aza-4λ^5-phosphanon-1-yl}carbamoyl)phenyl]-2-methylindolizin-3-yl}carbonyl)-2,4-dioxo-1,4-dihydroquinazolin-3(2H)-yl]acetic acid]", "values": [{"measurement": "EC50", "setting": "Homo sapiens, HUVEC", "value": "< 1", "unit": "nM"}, {"measurement": "active on the in vitro angiogenesis model", "value": "active"}, {"measurement": "% activation with respect to FGF2 (in vitro)", "value": 82, "unit": "%"}]}, {"smiles": "Cc1c(-c2ccc(C(=O)NCCOCCOCCNC(=O)c3ccc(-c4c(C)c(C(=O)c5ccc6c(=O)n(CC(=O)O)c(=O)[nH]c6c5)n5ccccc45)cc3)cc2)c2ccccn2c1C(=O)c1ccc2c(=O)n(CC(=O)O)c(=O)[nH]c2c1", "note": "[Compound 17, 2,2′-{ethane-1,2-diylbis[oxyethane-2,1-diylcarbamoylbenzene-4,1-diyl(2-methylindolizine-1,3-diyl)carbonyl(2,4-dioxo-1,4-dihydroquinazoline-7,3(2H)-diyl)]}diacetic acid]", "values": [{"measurement": "EC50", "value": 10, "unit": "nM"}, {"measurement": "% activation with respect to FGF2 (in vitro)", "value": 44, "unit": "%"}]}, {"smiles": "Cc1c(-c2cccc(C(=O)NCCOCCOCCNC(=O)c3cccc(-c4c(C)c(C(=O)c5ccc6c(=O)n(CC(=O)O)c(=O)[nH]c6c5)n5ccccc45)c3)c2)c2ccccn2c1C(=O)c1ccc2c(=O)n(CC(=O)O)c(=O)[nH]c2c1", "note": "[Compound 18, 2,2′-{ethane-1,2-diylbis[oxyethane-2,1-diylcarbamoylbenzene-3,1-diyl(2-methylindolizine-1,3-diyl)carbonyl(2,4-dioxo-1,4-dihydroquinazoline-7,3(2H)-diyl)]}diacetic acid]", "values": [{"measurement": "EC50", "value": "< 1", "unit": "nM"}, {"measurement": "% activation with respect to FGF2 (in vitro)", "value": 85, "unit": "%"}]}, {"smiles": "Cc1c(-c2cccc(C(=O)NCCOP(=O)(O)OCCNC(=O)c3cccc(-c4c(C)c(C(=O)c5ccc6c(=O)n(CC(=O)O)c(=O)[nH]c6c5)n5ccccc45)c3)c2)c2ccccn2c1C(=O)c1ccc2c(=O)n(CC(=O)O)c(=O)[nH]c2c1", "note": "[Compound 19, [7-({1-[3-({9-[3-(3-{[3-(carboxymethyl)-2,4-dioxo-1,4-dihydroquinazolin-7(2H)-yl]carbonyl}-2-methylindolizin-1-yl)phenyl]-4-hydroxy-4-oxido-9-oxo-3,5-dioxa-8-aza-4λ^5-phosphanon-1-yl}carbamoyl)phenyl]-2-methylindolizin-3-yl}carbonyl)-2,4-dioxo-1,4-dihydroquinazolin-3(2H)-yl]acetic acid]", "values": [{"measurement": "EC50", "setting": "Homo sapiens, HUVEC", "value": 3, "unit": "nM"}, {"measurement": "% activation with respect to FGF2 (in vitro)", "value": 35, "unit": "%"}]}, {"smiles": "Cc1c(NC(=O)c2cccc(OCC(=O)NCCNC(=O)COc3cccc(C(=O)Nc4c(C)c(C(=O)c5ccc6c(=O)n(CC(=O)O)c(=O)[nH]c6c5)n5ccccc45)c3)c2)c2ccccn2c1C(=O)c1ccc2c(=O)n(CC(=O)O)c(=O)[nH]c2c1", "note": "[Compound 20]", "values": [{"measurement": "EC50", "value": "< 3", "unit": "nM"}, {"measurement": "% activation with respect to FGF2 (in vitro)", "value": 61, "unit": "%"}]}]}
